The test system of data set [1] is CEM (T-lymphoblastic leukemia). Nature of the data set: Cytotoxicity screening test, CEM cells (resazurin, 72 h). It is filed as cell-based. As to conditions: Homo sapiens, CCRF-CEM. The protocol:
(§1) The screening human cancer cell lines used in this investigation were CEM (T-lymphoblastic leukemia), MCF7 (breast carcinoma), HeLa (cervical carcinoma) and G-361 (malignant melanoma) from the European Collection of Authenticated Cell Cultures (Salisbury, UK). Human foreskin fibroblasts (BJ) were used as reference cells, and they were a kind gift from Prof. Bartek from Danish Cancer Society Center (Copenhagen, Denmark). Cells were cultured in DMEM (Dulbecco’s Modified Eagle Medium) or in RPMI 1640 medium (CEM). Media used were supplemented with 10% fetal or 20% (CEM) bovine serum, L-glutamine (2 mM), and 1% penicillin-streptomycin mixture (all from Sigma, MO, USA). The cell lines were maintained under standard cell culture conditions at 37 °C and 5% CO2 in a humid environment. Cells were subcultured twice or three times a week using the standard trypsinization procedure. A description of the experimental procedure used in the cytotoxicity screening tests was already published. The cell viability was measured after 72 h using resazurin (Sigma, St. Louis, MO, USA).
On the technique in general: Alamar Blue is a resazurin reagent that responds to reducing activity.

The test system of data set [2] is G-361 (malignant melanoma). Nature of the data set: Cytotoxicity screening test, G-361 cells (resazurin, 72 h). The format is cell-based, human. The protocol:
as §1

For data set [3], the system named is MCF7 (breast carcinoma). As to the kind of experiment: Cytotoxicity screening test, MCF7 cells (resazurin, 72 h). It is filed as cell-based, human. On the procedure:
as §1

Data set [4] can be described thus: Cytotoxicity screening test, BJ reference fibroblasts (resazurin, 72 h). As to conditions: human, BJ foreskin fibroblasts (normal reference cells). The format is cell-based. On the procedure: as §1
In data set [5] the test system is HeLa (cervical carcinoma). Nature of the data set: Cytotoxicity screening test, HeLa cells (resazurin, 72 h). It is filed as cell-based, human. The protocol:
as §1

Data set [6] deals with caspase-3/7 in HeLa cells. As to the kind of experiment: Activity of caspase-3/7 in HeLa cells. The format is cell-based, human. As to conditions: 24 h, c = 30 µM, versus control. The protocol: (§2) A flow cytometric analysis, SDS–polyacrylamide gel electrophoresis and immunoblotting, and activities of caspase-3/7 were used to detect apoptosis in cervical carcinoma cells (HeLa) and malignant melanoma cells (G-361) treated for 24 h with 3a–3c (c = 3, 10 and 30 µM). The DNA content of HeLa or G-361 treated with 3a–3c for 24 h were analyzed using flow cytometry. Cells (HeLa and G-361), treated with the same concentrations of compounds for 24 h, were analyzed using electrophoresis and Western blotting, and the activity of caspase-3/7 by the standard methods. All experimental details of these methods were described in our recent paper.
Figure 3 Activity of caspase-3/7. Activity of caspase-3/7 after 24 h treatment with 3a–3c (3, 10 and 30 µM) in HeLa cells. The bars 0 are control untreated cells, the bars 0+ are control cells with DMSO. The experiment was repeated at least twice in duplicates. All data were analyzed by statistical software. Significance is indicated with an asterisk (*) (p ˂ 0.05).

Data set [7] deals with cervical carcinoma cells (HeLa). As to the kind of experiment: Flow cytometric analysis of cell cycle and apoptosis, HeLa cells. It is filed as cell-based, human. As to conditions: 24 h. On the procedure:
as §2
Figure 1 Flow cytometric analysis of cell cycle of HeLa cancer cells (A) and apoptosis (B). Flow cytometric analysis of cell cycle (A) and apoptosis (B) of human cervical carcinoma cells (HeLa) after 24 h with 3a–3c (3, 10 and 30 µM). The bars 0 means control untreated cells, the bars 0+ means control with DMSO. The experiment was repeated at least twice in triplicates. All data were analyzed by statistical software. Significance is indicated with an asterisk (*) (p ˂ 0.05).
For orientation: A flow cytometer gives signals particle by particle.

For data set [8], the system named is malignant melanoma cells (G-361). As to the kind of experiment: Flow cytometric analysis of cell cycle and apoptosis, G-361 cells. As to conditions: G-361, 24 h. The format is cell-based, human. The protocol:
as §2
3. Apoptosis in human cancer cells.
A detailed description of investigation of apoptosis in the HeLa and G-361 cancer cells is given in the main text of this paper. Because the results achieved with the G-361 cancer cells appeared to be less pronounced than those achieved with the HeLa cells, Figures S1A, S1B, S2 and S3 showing the results with G-361 cells are presented in the Supplementary material.
Figure S1A and S1B. Flow cytometric analysis of cell cycle (A) and apoptosis (B) of human malignant melanoma cells (G-361) after 24 h with 3a–3c (3, 10 and 30 µM). The bars 0 means control untreated cells, the bars 0+ means control with DMSO. Error bars are omitted for graph clarity. Experiment was repeated at least twice in duplicates.
Figure S1A. Flow cytometric analysis of cell cycle of G-361 cancer cells.
(1 picture or pasted object on this page, not shown here)

Setting [9] is: Homo sapiens, G-361, 72 h, resazurin, read-out: Cytotoxicity IC50, G-361.
Where [10] appears, read: Homo sapiens, MCF7, 72 h, resazurin, read-out: Cytotoxicity IC50, MCF7.
[11] abbreviates: Homo sapiens, HeLa, resazurin, read-out: Cytotoxicity IC50, HeLa.
Where [12] appears, read: Homo sapiens, G-361, resazurin, read-out: Cytotoxicity IC50, G-361.
Where [13] appears, read: Homo sapiens, MCF7, resazurin, read-out: Cytotoxicity IC50, MCF7.
[14] abbreviates: individual runs, Table S1, read-out: Cytotoxicity IC50, G361, single repeated screening runs (italics).
Where [15] appears, read: Homo sapiens, HeLa, individual runs, Table S1, read-out: Cytotoxicity IC50, HeLa, single repeated screening runs (italics).
The mark [16] stands for this setting: individual runs, Table S1, read-out: Cytotoxicity IC50, HeLa, single repeated screening runs (italics).
[17] abbreviates: individual runs, Table S1, read-out: Cytotoxicity IC50, MCF7, single repeated screening runs (italics).

Each structure is given as a SMILES string. Several values for one entry are separate records, joined by “and”; a condition that tells them apart may be missing. Equal entries are not always repeated. Where two headings read alike, the source gives them in different places.

`CC1(C)CC[C@]2(C(=O)O)CC[C@]3(C)C(=CC[C@@H]4[C@@]5(C)CC[C@H](O)C(C)(C)[C@@H]5CC[C@]43C)[C@@H]2C1` [Compound 1, (3β)-3-hydroxyolean-12-en-28-oic acid, reference compound]: the IC50 in data set [1], in [2] (setting [9]), in data set [3] (setting [10]) and in [5] (setting [11]) was over 50 µM each time. This compound also registered an IC50 at 72 h in [4] of over 50 µM.

With `CC(=O)O[C@H]1CC[C@]2(C)[C@H]3CC=C4[C@@H]5CC(C)(C)CC[C@]5(C(=O)O)CC[C@@]4(C)[C@]3(C)CC[C@H]2C1(C)C` [Compound 2, (3β)-3-(acetyloxy)olean-12-en-28-oic acid], the IC50 in data set [1], in data set [2] (setting [12]), in data set [3] (setting [13]) and in [5] (setting [11]) was over 50 µM each time. In data set [4], this compound had a half-inhibitory concentration (IC50) at 72 h of over 50 µM.

As for `CC(=O)O[C@H]1CC[C@]2(C)[C@H]3CC=C4[C@@H]5CC(C)(C)CC[C@]5(C(=O)NCCc5c[nH]c6ccccc56)CC[C@@]4(C)[C@]3(C)CC[C@H]2C1(C)C` [Compound 3a, Tryptamine amide of (3β)-3-(acetyloxy)olean-12-en-28-oic acid], the half-inhibitory concentration (IC50) is over 50 µM in data set [1]; 8.7 µM in [2] (Homo sapiens, G-361, 72 h, individual runs, Table S1, read-out: Cytotoxicity IC50, G361, single repeated screening runs (italics)); 9 ± 0.4 µM in data set [2] (setting [9]); 9.2 µM in data set [2] (setting [14]); over 50 µM in data set [3] (setting [10]); 8.4 µM in [5] (setting [15]). In addition, the IC50 was found to be 8.7 ± 0.4 µM in [5] (setting [11]) and 9 µM in [5] (setting [16]). Besides, in [6], the “Induction of caspase-3/7 activity” value is given as “up to 4 times”. In [4], this compound displayed an IC50 at 72 h of over 50 µM. For the same compound, the “Effect on cell cycle” value in data set [7] (c = 30 µM) is “cell cycle arrest in the G2/M phase”; in [8] (c = 10 µM), “increase of accumulation of the S-phase cells”. For the same compound, the “Induction of apoptosis (apoptotic cells)” value in [7] (c = 30 µM) turned out to be 4%. In addition, the “Level of apoptotic cells in subG1 phase” value in data set [8] was “up to 7.7%”.

`CC(=O)O[C@H]1CC[C@]2(C)[C@H]3CC=C4[C@@H]5CC(C)(C)CC[C@]5(C(=O)NCCc5c[nH]c6cc(F)ccc56)CC[C@@]4(C)[C@]3(C)CC[C@H]2C1(C)C` [Compound 3b] yielded a melting point of 139 to 140 °C. Also, in data set [1], the IC50 is over 50 µM. Besides, in data set [2] (setting [9]), the IC50 came out at 15.9 ± 6.6 µM. Further, in data set [2] (setting [14]), the IC50 was > 50 µM and 23 µM and 9.9 µM and 14.9 µM. The IC50 in data set [3] (setting [10]) is over 50 µM. Moreover, in data set [6], the “Induction of caspase-3/7 activity” value is given as “up to 4.6 times”. The compound also displayed an IC50 at 72 h in data set [4] of over 50 µM. Further, the “Induction of apoptosis (apoptotic cells)” value in [7] (c = 10 µM) is reported as “up to 6.4%”. Also, the “Effect on cell cycle” value in [7] (c = 30 µM) is reported as “increased the number of cells in the G2/M phase”. Moreover, the “Level of apoptotic cells in subG1 phase” value in data set [8] is recorded as “increased the level of apoptotic cells”. Further, the “Effect on cell cycle” value in data set [8] (c = 10 µM) is recorded as “increase of accumulation of the S-phase cells”. Besides, the IC50 in [5] (setting [11]) stood at 6.7 ± 1.4 µM. Also, in [5] (setting [16]), the IC50 was 7.7 µM and 13.1 µM and 5.7 µM.

As to `CC(=O)O[C@H]1CC[C@]2(C)[C@H]3CC=C4[C@@H]5CC(C)(C)CC[C@]5(C(=O)NCCc5c[nH]c6ccc(F)cc56)CC[C@@]4(C)[C@]3(C)CC[C@H]2C1(C)C` [Compound 3c], the melting point was 138 to 139 °C. In data set [1], this compound returned an IC50 of over 50 µM. Also, the 50% inhibitory concentration (IC50) in [2] (setting [9]) is over 50 µM. For the same compound, in [3] (setting [10]), the IC50 is over 50 µM. For the same compound, in [4], the IC50 at 72 h was over 50 µM. In addition, in data set [7] (c = 30 µM), the “Effect on cell cycle” value is listed as “increased the number of cells in the G2/M phase” and the “Induction of apoptosis (apoptotic cells)” value stood at 2.7%. In data set [8] (c = 3 µM), the “Effect on cell cycle” value is given as “increase of accumulation of the S-phase cells”. Also, the concentration for half-maximal inhibition (IC50) in [5] (setting [11]) stood at 12.2 ± 4.7 µM. Moreover, the IC50 in data set [5] (setting [16]) was 10.4 µM and 17.6 µM and 8.7 µM.

As to `CC1(C)CCC2(C(=O)NCCc3c[nH]c4ccccc34)CCC3(C)C(=CCC4C5(C)CCC(O)C(C)(C)C5CCC43C)C2C1` (stereo not drawn) [Compound 4a], the IC50 in data set [1] is over 50 µM; in data set [2] (setting [9]) it was over 50 µM; in data set [2] (setting [14]) it was > 50 µM (2×) and 19.7 µM; in data set [3] (setting [10]), over 50 µM; in [5] (setting [11]) it was over 50 µM; in data set [5] (setting [16]) it was 20.4 µM and > 50 µM (2×). This compound gave a half-maximal inhibitory concentration (IC50) at 72 h in data set [4] of over 50 µM.

In the case of `CC1(C)CCC2(C(=O)NCCc3c[nH]c4cc(F)ccc34)CCC3(C)C(=CCC4C5(C)CCC(O)C(C)(C)C5CCC43C)C2C1` (stereo not drawn) [Compound 4b], the melting point was 149 to 150 °C. In addition, the IC50 in [1] is over 50 µM. In addition, the IC50 in data set [2] (setting [9]) was over 50 µM. Besides, the IC50 in data set [3] (Homo sapiens, MCF7, 72 h, individual runs, Table S1, read-out: Cytotoxicity IC50, MCF7, single repeated screening runs (italics)) was determined as 44.5 µM. Besides, the IC50 in data set [3] (setting [10]) is over 50 µM. In addition, the IC50 in data set [3] (setting [17]) is over 50 µM. The compound further gave an IC50 at 72 h in data set [4] of over 50 µM. Besides, the IC50 in data set [5] (setting [15]) is 27.3 µM. Moreover, the IC50 in data set [5] (setting [11]) came out at 27.9 ± 0.8 µM. The IC50 in data set [5] (setting [16]) was 28.5 µM and > 50 µM.

Turning to `CC1(C)CCC2(C(=O)NCCc3c[nH]c4ccc(F)cc34)CCC3(C)C(=CCC4C5(C)CCC(O)C(C)(C)C5CCC43C)C2C1` (stereo not drawn) [Compound 4c], the melting point was 147 to 148 °C. Also, in data set [1], the IC50 was over 50 µM. Further, in data set [2] (setting [9]), the IC50 was over 50 µM. Also, the IC50 in [3] (setting [10]) came out at 13.5 ± 3.3 µM. The IC50 in data set [3] (setting [17]) was 31.8 µM and > 50 µM and 11.2 µM and 15.8 µM. In data set [4], this compound showed an IC50 at 72 h of over 50 µM. In addition, the IC50 in data set [5] (setting [15]) amounted to 14.9 µM. Also, in data set [5] (setting [11]), the IC50 is 20.3 ± 7.6 µM. Further, the IC50 in data set [5] (setting [16]) was 29 µM and 17.1 µM.

Take `NCCc1c[nH]c2ccccc12` [tryptamine]: the IC50 in data set [1], in data set [2] (setting [12]), in data set [3] (setting [13]) and in [5] (setting [11]) was over 50 µM throughout. For the same compound, the IC50 at 72 h in data set [4] was over 50 µM.

As a reminder, the IC50 is the concentration that inhibits the measured activity by half. A word on the melting point: it is the temperature, or range, at which the solid turns liquid.

Values taken from paper PMC8540097, “Novel Oleanolic Acid-Tryptamine and -Fluorotryptamine Amides: From Adaptogens to Agents Targeting In Vitro Cell Apoptosis” (Plants, 2021).
